Positions of bridges follow the written chain, without caps; N, C: chain ends. Residues, ends and D or L forms follow the SMILES beside them.

The test system of the data set is Human oocytes. The experiment in a line: Randomized prospective study in human IVF (fertilin study). It is filed as in vivo. The following applies: first step, 56 couples. An excerpt: A clinical trial was begun in the IVF laboratory of the MAP Center of Cochin, on Sep. 8, 2014, on 66 couples, the average age being 34.3±4.2 years old for the women and 37.0±5.2 for their partners. It is a randomized, single-center prospective study of in vitro fertilization (IVF) carried out in the presence or absence of FEEc. The oocytes, recovered from their cumulus, were divided up into two groups alternately into one and then into the other according to their order of recovery. When all the oocytes were recovered, a technician who had not participated in the recovery of the cumuli determined by randomization which of the two groups was inseminated in the presence of FEEc and which served as control. One part of the oocytes is incubated in the standard culture medium (Global, JCD), the other part in this same medium supplemented with 100 μM FEEc.
The methodology of this study, represented diagrammatically in FIG. 9, is presented below. Human oocytes originating from women 18 to 43 years old were recovered by ovarian puncture after hormonal stimulation by gynecologists. They were divided up in a randomized manner into 2 groups: the oocytes incubated in the presence of a standard culture medium supplemented with 100 μM FEEc or of a standard culture medium (Global, JCD), then placed in an incubator at 37° C. under an atmosphere of 5% of CO2. […]

Take `N[C@H]1CSSC[C@@H](C(=O)O)NC(=O)[C@H](CCC(=O)O)NC(=O)[C@H](CCC(=O)O)NC(=O)[C@H](Cc2ccccc2)NC(=O)[C@H](CO)NC1=O` [FEEc, C-S-F-E-E-C] (H-CSFEEC-OH; disulfide 1-6): the adverse effect entry was “No adverse effect has been reported to date”.
